Laboratory results taken from patent US20040171086A1, “Selective modulation of TLR-mediated biological activity” (3M Innovative Properties Company, priority 2003, published 2004).

What follows are molecules tested against T1, TLR6 (Homo sapiens, UniProt Q9Y2C9) (assay: IFN-α1-luciferase reporter assay in genetically modified Namalwa cells, TLR6). Settings: 10 μM IRM, 18 hours.
T1 construct: expressed in transfected cells; host or cells: Namalwa (ATCC CRL-1432), pCI-TLR6 vector, G418 selected
T1 sequence (Q9Y2C9 32-796): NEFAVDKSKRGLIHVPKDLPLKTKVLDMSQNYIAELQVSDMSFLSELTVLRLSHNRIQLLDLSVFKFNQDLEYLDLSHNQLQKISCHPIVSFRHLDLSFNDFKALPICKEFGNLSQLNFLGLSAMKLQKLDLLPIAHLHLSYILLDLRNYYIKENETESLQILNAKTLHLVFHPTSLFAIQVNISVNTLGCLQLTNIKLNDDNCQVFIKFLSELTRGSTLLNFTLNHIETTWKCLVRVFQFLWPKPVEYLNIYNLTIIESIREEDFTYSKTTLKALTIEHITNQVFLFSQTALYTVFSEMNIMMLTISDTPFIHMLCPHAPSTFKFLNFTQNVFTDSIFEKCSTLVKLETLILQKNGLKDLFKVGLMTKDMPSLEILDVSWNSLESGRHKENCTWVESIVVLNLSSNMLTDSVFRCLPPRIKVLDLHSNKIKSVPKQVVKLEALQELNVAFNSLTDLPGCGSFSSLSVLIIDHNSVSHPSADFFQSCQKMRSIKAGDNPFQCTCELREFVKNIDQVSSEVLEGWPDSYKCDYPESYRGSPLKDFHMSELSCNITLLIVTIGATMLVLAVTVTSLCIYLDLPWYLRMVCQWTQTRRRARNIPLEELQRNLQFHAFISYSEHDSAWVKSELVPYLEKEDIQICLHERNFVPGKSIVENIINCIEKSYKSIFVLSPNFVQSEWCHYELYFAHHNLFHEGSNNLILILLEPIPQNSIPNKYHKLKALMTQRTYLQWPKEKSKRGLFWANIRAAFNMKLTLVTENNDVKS
Assay type: cell-based
Protocol: Results are shown in Table 6 and are expressed as fold induction of IFN-α1 —induced luciferase signal, again with respect to a vehicle control.
The assay identified TLR6-selective compounds (i.e., compounds that modulate TLR6-mediated activity, but not TLR7-mediated activity), TLR7-selective compounds (compounds that modulate TLR7-mediated activity, but not TLR6-mediated activity), and compounds that modulate cellular activity through both TLR6 and TLR7.
Unless otherwise indicated, all incubations were performed at 37° C. with 5% CO2 at 98% humidity.
Culture medium was prepared from complete RPMI 1640 medium (BioSource International, Inc., Camarillo, Calif.). Fetal bovine serum (Atlas Biologicals, Inc., Ft. Collins, Colo.) was added to a final concentration of 7.5% (vol/vol); L-glutamine (BioSource International, Inc.) was added to 5 mM; and sodium pyruvate (BioSource International, Inc.) was added to 1 mM.
Namalwa cells were grown by incubation in culture medium overnight. Cells were harvested by centrifugation in a tabletop centrifuge (1200 RPM for 5 minutes), and then resuspended in phosphate buffered sucrose to a concentration of 1.3×10^7 cells/mL.
For each transfection, a 750 μL aliquot of the cell suspension was placed in an electroporation cuvette with 4 mm gaps. 10 μg of the pIFN-α1-luc vector and 10 μg of the pCI-TLR6 vector were added to the electroporation cuvette. The cell and vector mixtures were incubated at room temperature for 5 minutes. The cells were electroporated using a BioRad Gene Pulser (BioRad Laboratories, Hercules, Calif.) set to at 500 μF capacitance and […], then incubated at room temperature for 5 minutes.
The electroporated cells were suspended in 10 mLs of culture medium and incubated overnight. Dead cells and debris were removed after 24 hours using a MACS Dead Cell Removal kit (Miltenyi Biotec, Auburn, Calif.). Cells were resuspended in 10 mL of culture medium and incubated for an additional 24 hours.
Transfected cells were selected by adding G418 (Promega Corp., Madison, Wis.) to a final concentration of 1 mg/mL and incubating the cells for seven days.
The selected transfected cells were counted and resuspended to a concentration of 1×10^6 cell per mL in culture medium. 100 μl aliquots of cells were placed in the wells of a white-walled, white-bottomed 96-well plate (Corning, Inc., Corning, N.Y.). 1.0 μL of an IRM compound from Table 1 (prepared at 1 mM in 100% DMSO) was added to some cell aliquots so that the final concentration of IRM compound was 10 μM. As a positive control, some cell aliquots were incubated with Sendai virus instead of IRM compound. As a negative control, some cell aliquots were incubated with DMSO without IRM compound. In all cases, the cells were incubated for 18 hours.
The plates were equilibrated to room temperature before one volume of reconstituted LucLight Plus (Packard Instruments, Meriden, Conn.) was added to each aliquot of cells. Each well of the plate was read on an LJL Analyst (LJL Biosystems, Inc., Sunnyvale, Calif.) set with a 5 minute dark adapt. Results are shown in Table 6 and are expressed as fold increase of the IFN-αl—induced luciferase signal compared to a DMSO control.

Row | SMILES | TLR6: fold increase of the IFN-α1-induced luciferase signal compared to a DMSO control [fold increase]
1 | CCOCc1nc2c(N)nc3ccccc3c2n1CC(C)C [IRM1, 2-(ethoxymethyl)-1-(2-methylpropyl)-1H-imidazo[4,5-c]quinolin-4-amine] | 7.93
2 | CCc1nc2c(N)nc3ccccc3c2n1CCCCSc1cc(Cl)cc(Cl)c1 [IRM14, 1-{4-[(3,5-dichlorophenyl)thio]butyl}-2-ethyl-1H-imidazo[4,5-c]quinolin-4-amine] | 2.73
3 | CCOCc1nc2c(N)nc3c(c2n1CC(C)(C)O)CCCC3 [IRM16, 4-amino-2-ethoxymethyl-α,α-dimethyl-6,7,8,9-tetrahydro-1H-imidazo[4,5-c]quinoline-1-ethanol] | 12.95
4 | COCCc1nc2c(N)nc3ccccc3c2n1CCOCCNC(=O)Nc1ccccc1 [IRM19, N-(2-{2-[4-amino-2-(2-methoxyethyl)-1H-imidazo[4,5-c]quinolin-1-yl)ethoxy}ethyl)-N′-phenylurea] | 12.60
5 | CCC(C)NC(=S)NCCn1c(CCOC)nc2c(N)nc3ccccc3c21 (stereo not drawn) [IRM21, N-{2-[4-amino-2-(2-methoxyethyl)-1H-imidazo[4,5-c]quinolin-1-yl]ethyl}-N′-sec-butylthiourea] | 17.98
6 | COCCc1nc2c(N)nc3c(c2n1CC(C)(C)NS(C)(=O)=O)CCCC3 [IRM22, N-{2-[4-amino-2-(2-methoxyethyl)-6,7,8,9-tetrahydro-1H-imidazo[4,5-c]quinolin-1-yl]-1,1-dimethylethyl}methanesulfonamide] | 16.25

More lines, now with the values ahead:

Row | TLR6: fold increase of the IFN-α1-induced luciferase signal compared to a DMSO control [fold increase] | SMILES
7 | 10.24 | COCCc1nc2c(N)nc3ccccc3c2n1CCOCCN(C)C(=O)C1CCCCC1 [IRM3, N-(2-{2-[4-amino-2-(2-methoxyethyl)-1H-imidazo[4,5-c]quinolin-1-yl]ethoxy}ethyl)-N-methylcyclohexanecarboxamide]
8 | 13.61 | CCCCc1nc2c(N)nc3ccccc3c2n1CCCCCS(C)(=O)=O [IRM6, 2-butyl-1-[5-(methylsulfonyl)pentyl]-1H-imidazo[4,5-c]quinolin-4-amine]
9 | 12.49 | CCc1nc2c(N)nc3ccccc3c2n1CCCCNC(=O)C1CCCCC1 [IRM8, N-[4-(4-amino-2-ethyl-1H-imidazo[4,5-c]quinolin-1-yl)butyl]cyclohexanecarboxamide]
